Source: PMC3171403, “Two Functionally Distinctive Phosphopantetheinyl Transferases from Amoeba Dictyostelium discoideum” (PLoS ONE, 2011)

What was measured:
Assay type in all cases: biochemical
DiAcpS [1] = molecular target: T1, DiAcpS (Dictyostelium discoideum, UniProt Q552R4); assay: gel-based radiolabel transfer to apo-ACP, phosphorimager; conditions: labelled compound; 5-45 uM; 20 uM enzyme; 54 uM mycobacterial ACP Rv1344; 12.5 mM MgCl2, Tris-Cl pH 8.0, 30 C (gel-binding assay); only kcat/Km in text
T1 construct: gene DDB_G0275923; full gene (2 exons) in pET28a, N-terminal His6 tag, E. coli BL21(DE3); expected 20 kDa, runs at about 27 kDa
T1 sequence (Q552R4 entry or part of it): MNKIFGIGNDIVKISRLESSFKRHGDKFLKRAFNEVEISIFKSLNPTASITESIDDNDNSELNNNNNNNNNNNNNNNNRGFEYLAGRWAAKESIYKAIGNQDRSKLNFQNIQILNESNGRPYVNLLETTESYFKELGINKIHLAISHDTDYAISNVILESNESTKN

DiSfp [2] = molecular target: T2, DiSfp (Dictyostelium discoideum, UniProt Q54MI2); assay: as above; conditions: labelled compound; 5-45 uM; 20 uM enzyme; 54 uM mycobacterial PKS2; 12.5 mM MgCl2, Tris-Cl pH 8.0, 30 C (gel-binding assay); only kcat/Km in text
T2 construct: gene DDB_G0285927; full gene (2 exons) in pET28a, N-terminal His6 tag, E. coli BL21(DE3); 34 kDa
T2 sequence (Q54MI2 entry or part of it): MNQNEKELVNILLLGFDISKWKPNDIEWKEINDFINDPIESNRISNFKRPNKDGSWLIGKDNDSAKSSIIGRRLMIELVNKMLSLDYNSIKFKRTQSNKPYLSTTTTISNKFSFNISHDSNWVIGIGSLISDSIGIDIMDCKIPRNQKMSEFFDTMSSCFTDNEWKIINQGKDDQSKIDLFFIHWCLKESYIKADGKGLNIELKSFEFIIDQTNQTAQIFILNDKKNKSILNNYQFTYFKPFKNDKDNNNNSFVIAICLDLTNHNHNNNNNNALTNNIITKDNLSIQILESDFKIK

DiAcpS [3] = molecular target: T1, DiAcpS; assay: HPLC and MALDI-TOF of holo-ACP formation; conditions: 250 uM CoA; 54 uM apo-ACP (Rv1344 or Dictyostelium stand-alone ACP); 12.5 mM MgCl2, Tris-Cl pH 8.0, 37 C
DiSfp [4] = molecular target: T2, DiSfp; assay: HPLC and MALDI-TOF of holo-ACP formation; conditions: 250 uM CoA; 54 uM apo DiPKS16 ACP; 12.5 mM MgCl2, Tris-Cl pH 8.0, 37 C

SMILES | gel-based radiolabel transfer to apo-ACP, phosphorimager (DiAcpS [1]) | gel-based radiolabel transfer to apo-ACP, phosphorimager (DiSfp [2]) | HPLC and MALDI-TOF of holo-ACP formation (DiAcpS [3]) | HPLC and MALDI-TOF of holo-ACP formation (DiSfp [4])
CC(=O)SCCNC(=O)CCNC(=O)[C@H](O)C(C)(C)COP(=O)(O)OP(=O)(O)OC[C@H]1O[C@@H](n2cnc3c(N)ncnc32)[C@H](O)[C@@H]1OP(=O)(O)O [acetyl CoA] | Kinetics of DiAcpS with the ACP was determined by varying the concentrations of acetyl CoA | phosphopantetheinylation only by DiSfp and no activity could be observed for DiAcpS | – | –
CC(C)(COP(=O)(O)OP(=O)(O)OC[C@H]1O[C@@H](n2cnc3c(N)ncnc32)[C@H](O)[C@@H]1OP(=O)(O)O)[C@@H](O)C(=O)NCCC(=O)NCCS [coenzyme A] | – | – | DiAcpS mediated conversion of apo- to holo-ACP resulted in shift in the retention time | DiSfp resulted in a shift of ACP retention time on reverse-phase column
